{
  "source": "patent US10765638B2",
  "about": "“Particle formulation with polycation complex” (Yale University, priority 2017, dated 2020)",
  "type_in_all_cases": "cell-based",
  "key": {"[1]": {"system": "D54, SKMG3, T98G or U251 cells", "experiment": "Glioma cell proliferation (CellTiter 96), NGI-1 alone or with cytotoxic chemotherapy", "protocol": "Radiation (XRT) doses of either 0, 2, 4, or 6 Gy were delivered with a Precision X-ray 320-kV orthovoltage unit at a dose rate of 2 Gy/45 seconds (PXI X-Ray Systems). Twenty-four hours following XRT cells were washed, trypsinized, and re-plated in triplicate wells to determine clonogenic survival. […] Growth rates were determined by CellTiter 96 Non-Radioactive Cell Proliferation Assay (Promega; Madison, Wis., USA) according to the manufacturer's directions. For each experiment one thousand cells were seeded in triplicate wells in 96-wells plates. The following day, cell cultures were treated with NGI-1 (1 μM), Temozolomide (TMZ, 10 μM), Etoposide (VP-16, 0.1 μM) or combinations for 5 days. Absorbance at 540 nm was measured using the spectrophotometric reading (BioTek Synergy 2; Winooski, Vt. USA)."}, "HCC827-GR cells": {"system": "HCC827-GR cells", "experiment": "Confocal microscopy of EGFR and phosphorylated MET localization", "settings": "detected in control samples", "protocol": "For immunofluorescence, HCC827-GR cell lines were grown on glass coverslips to 80% confluence. Cell cultures were washed with PBS and fixed with 4% (w/v) formaldehyde in PBS for 30 min at 37° C. After washing with PBS, cells were permeabilized with 0.1% v/v Triton X-100 in PBS for 10 min, rinsed three times in PBS and treated with 5% w/v bovine serum albumin for 1 h. Cells were then incubated overnight at 4° C. with mouse anti-EGFR pAb (sc-03; Santa Cruz Biotechnology; 1:800) and rabbit anti-MET mAb (Cell Signaling; 1:1,000) primary antibodies and for 1 h at room temperature with either Alexa Fluor 543-conjugated goat anti-rabbit IgG or Alexa Fluor 488-conjugated goat anti-mouse IgG (ThermoFisher Scientific; 1:1,000) secondary antibodies. All antibodies were diluted in PBS containing 5% w/v bovine serum albumin. Nuclei were stained using ToPro3 (Invitrogen). Confocal cellular images were captured with an inverted Zeiss LSM 510 Pascal laser confocal microscope (Carl Zeiss, Jenna, Germany), using a 63/1.4 Plan-Apochromat objective."}, "MET, PDGFR and FGFR RTKs": {"system": "MET, PDGFR and FGFR RTKs", "experiment": "Western blot of MET, PDGFR and FGFR phosphorylation and levels in glioma cells", "protocol": "(§1) In this study, the D54, SKMG3, U251, T98G and 42-MG glioma cell lines were used. The source of D54, SKMG3 and U251 cells has been described previously (Contessa at al., Clin Cancer Res., 16:3205-14 (2010), Lopez et al., Int J Radiat Oncol Biol Phys., 69:214-20 (2007)). The 42-MG and T98G cells were provided by Todd Waldman (Georgetown University) and Dr. Ranjit Bindra (Yale University), respectively. The cells were cultured in DMEM/F12 (D54 and T98G), DMEM (42-MG and U251) or RPMI 1640 (SKMG3)+10% FBS supplemented with penicillin and streptomycin (Gibco, Life Technologies, Grand Island, N.Y., US) in a humidified incubator with 5% CO2, and they were kept in culture no more than 6 months after resuscitation from the original stocks. […] Mycoplasma cell culture contamination was routinely checked and ruled out using a biochemical test (MycoAlert Mycoplasma Detection Kit from Lonza, Rockland, Me. USA). Tunicamycin was purchased from Calbiochem/EMD-millipore (Burlington, Mass., USA). Cetuximab and Erlotinib were purchased at Selleck Chemicals LLC (Houston, Tex., USA). Luciferin was supplied by Promega (Madison, Wis. USA). For in vitro experiments, radiation (XRT) was administered at room temperature using a Precision X-ray 320-kV orthovoltage unit at a dose rate of 2 Gy/45 seconds (PXI X-Ray Systems) with 2 mm aluminum filter. For in vivo studies, radiation was administered at room temperature using a Precision X-ray 250-kV orthovoltage unit at a dose rate of 6.42 Gy/min (PXI X-Ray Systems) with 2 mm aluminum filter. Quality Assurance for both irradiators was performed monthly using a P.T.W. 0.3 cm^3 Ionization Chamber calibrated to NIST standards and quarterly dosimetry using thermoluminescent dosimeter (TLD)-based or ferrous sulfate-based dosimeters."}, "EGFR, ErbB2, and ErbB3": {"system": "EGFR, ErbB2, and ErbB3", "experiment": "Western blot of ErbB family RTK glycosylation, phosphorylation and protein levels in glioma cells", "protocol": "as §1"}, "[2]": {"system": "HCC827 and HCC827-GR cells", "experiment": "MTT proliferation assay", "settings": "both parental and HCC827-GR cells; 10 μM NGI-1, 5 days", "protocol": "(§2) The H1975 and A549 cell lines were purchased from ATCC (Manassas, Va.), the PC9 cell line was a gift from Katie Politi, and the HCC-827 and HCC-827-GR lines were gifts from Jeff Engelman (MGH, Boston Mass.). Cell lines were cultured in RPMI 1640+10% FBS supplemented with penicillin and streptomycin (Gibco, Life Technologies, Grand Island, N.Y., US) in a humidified incubator with 5% CO2, and they were kept in culture no more than 4 months after resuscitation from the original stocks. No additional authentication was performed. Mycoplasma cell culture contamination was routinely checked and ruled out using the MycoAlert Mycoplasma Detection Kit (Lonza, Rockland, Me. USA). To generate a TKI resistant cell lines, either PC9 or H1975 cells were exposed to increasing concentrations of gefitinib or osimertinib, respectively. Gefitinib or Osimertinib concentrations were increased stepwise when cells resumed growth kinetics similar to the untreated parental cells over a dose range from 10 to 500 nM. Resistant cell cultures were obtained ˜8-12 weeks after initiation of drug exposure. To confirm the emergence of a therapeutic resistant, MTT assays were performed after allowing the cells to grow in drug-free conditions for at least 4 days.\n(§3) Growth rates were determined by CellTiter 96 NonRadioactive Cell Proliferation Assay (Promega; Madison, Wis., USA) according to the manufacturer's directions. Briefly, NSCLC cells (2×103) untreated or treated with 10 μM NGI-1, 100 nM Gefitinib, or 1 μM Osimertinib (Selleck Chemicals), were seeded in triplicate in 96-wells plates and grown in culture medium containing 10% serum. The media was changed with or without new inhibitor every 48 h. Cell numbers were estimated after 0, 3, and 5 days by adding MTT (3-(4,5-dimethylthiazol-2-yl)-2,5-diphenyltetrazolium bromide) reagent to the wells 4 h before taking the spectrophotometric reading (absorbance at 570 nm)."}, "PC9 and PC9-GR cells": {"system": "PC9 and PC9-GR cells", "experiment": "MTT proliferation assay", "settings": "both parental and T790M expressing PC9 cell lines; 10 μM NGI-1, 5 days", "protocol": "as §2, §3"}, "H1975 and H1975-OR cells": {"system": "H1975 and H1975-OR cells", "experiment": "MTT proliferation assay", "settings": "both parental and H1975-OR cell lines; 10 μM NGI-1, 5 days", "protocol": "as §2, §3"}},
  "data": [
    {"smiles": "Cc1cnc(NC(=O)c2cc(S(=O)(=O)N(C)C)ccc2N2CCCC2)s1", "note": "[NGI-1, 5-(dimethylsulfamoyl)-N-(5-methyl-1,3-thiazol-2-yl)-2-(pyrrolidin-1-yl)benzamide]", "values": [
      {"measurement": "glioma cell line proliferation, dose response", "setting": "[1]; D54, SKMG3, U251 and T98G, 5 days of drug exposure", "value": "sensitive"},
      {"measurement": "proliferation, NGI-1 combined with TMZ or VP-16", "setting": "[1]; D54 and SKMG3, NGI-1 1 μM with TMZ 10 μM or VP-16 0.1 μM, 5 days, not synergistic", "value": "further reduced glioma cell proliferation"},
      {"measurement": "enhancement of the anti-proliferative effects of TMZ or VP-16", "setting": "[1]; T98G or U251 cells, NGI-1 1 μM, 5 days", "value": "did not enhance"},
      {"measurement": "EGFR detected near the cell surface", "setting": "HCC827-GR cells", "value": "not in NGI-1 treated samples"},
      {"measurement": "phosphorylation of PDGFR", "setting": "MET, PDGFR and FGFR RTKs; 42-MG, SKMG3, and T98G cells", "value": "uniformly reduced"},
      {"measurement": "phosphorylation of MET", "setting": "MET, PDGFR and FGFR RTKs; D54, SKMG3, U251, and T98G cells", "value": "uniformly reduced phosphorylation"},
      {"measurement": "FGFR1 levels", "setting": "MET, PDGFR and FGFR RTKs; glioma cell lines", "value": "increased"},
      {"measurement": "FGFR1 receptor phosphorylation", "setting": "MET, PDGFR and FGFR RTKs; glioma cell lines", "value": "not accompanied by an increase in receptor phosphorylation"},
      {"measurement": "ErbB3 protein levels", "setting": "EGFR, ErbB2, and ErbB3; D54 and SKMG3 cell lines", "value": "reduction of ErbB3 protein levels"},
      {"measurement": "ErbB2 protein levels", "setting": "EGFR, ErbB2, and ErbB3; SKMG3", "value": "reduction in ErbB2 protein levels"},
      {"measurement": "EGFR protein levels (as cause of reduced EGFR phosphorylation)", "setting": "EGFR, ErbB2, and ErbB3; SKMG3 and D54 cell lines", "value": "not caused by decreases in EGFR protein levels"},
      {"measurement": "glycosylation of EGFR, ErbB2, and ErbB3 (protein gel mobility on western blot)", "setting": "EGFR, ErbB2, and ErbB3; SKMG3 and D54 cell lines", "value": "reduced glycosylation"},
      {"measurement": "phosphorylation of EGFR, ErbB2, and ErbB3", "setting": "EGFR, ErbB2, and ErbB3; SKMG3 and D54 cell lines", "value": "reduced"},
      {"measurement": "reduction of proliferation", "setting": "[2]", "value": 80, "unit": "%"},
      {"measurement": "reduction of proliferation", "setting": "PC9 and PC9-GR cells", "value": "~90", "unit": "%"},
      {"measurement": "reduction of proliferation", "setting": "H1975 and H1975-OR cells", "value": "more than 70%"}
    ]}
  ]
}
